From patent US8877769B2, “Heteroaryl-substituted urea modulators of fatty acid amide hydrolase” (Janssen Pharmaceutica NV, priority 2008, dated 2014)

Experiments:
FAAH = target: T1, FAAH (Homo sapiens, UniProt O00519); experiment: Assay Method 1: FAAH assay, 3H-anandamide hydrolysis in cell homogenate
T1 sequence (O00519 1-579): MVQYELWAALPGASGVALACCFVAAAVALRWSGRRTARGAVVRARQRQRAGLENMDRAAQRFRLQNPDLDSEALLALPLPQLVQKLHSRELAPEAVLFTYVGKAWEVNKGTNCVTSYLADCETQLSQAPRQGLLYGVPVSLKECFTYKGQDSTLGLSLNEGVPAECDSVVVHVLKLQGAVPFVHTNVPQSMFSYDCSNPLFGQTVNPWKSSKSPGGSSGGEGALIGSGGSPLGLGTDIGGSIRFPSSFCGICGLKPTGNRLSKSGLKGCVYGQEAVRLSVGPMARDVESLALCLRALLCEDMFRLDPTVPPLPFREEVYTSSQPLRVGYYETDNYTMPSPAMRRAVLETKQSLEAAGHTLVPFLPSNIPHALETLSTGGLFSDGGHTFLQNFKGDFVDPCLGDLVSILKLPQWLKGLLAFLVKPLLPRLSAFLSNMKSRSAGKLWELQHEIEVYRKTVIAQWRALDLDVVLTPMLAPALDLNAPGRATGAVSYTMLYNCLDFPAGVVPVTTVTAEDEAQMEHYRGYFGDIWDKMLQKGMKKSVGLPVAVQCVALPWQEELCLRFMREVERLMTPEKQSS
Procedure: The assay mixture consisted of 50 μL of the cell homogenate, 10 μL of the test compound, and 40 μL of anandamide [1-^3H-ethanolamine] (^3H-AEA, Perkin-Elmer, 10.3 Ci/mmol), which was added last, for a final tracer concentration of 80 nM. The reaction mixture was incubated at rt for 1 h. During the incubation, 96-well Multiscreen filter plates (catalog number MAFCNOB50; Millipore, Bedford, Mass., USA) were loaded with 25 μL of activated charcoal (Multiscreen column loader, catalog number MACL09625, Millipore) and washed once with 100 μL of MeOH. […] After the 1 h incubation, 60 μL of the reaction mixture were transferred to the charcoal plates, which were then assembled on top of the DYNEX plates using Centrifuge Alignment Frames (catalog number MACF09604, Millipore). The unbound labeled ethanolamine was centrifuged through to the bottom plate (5 min at 2000 rpm), which was preloaded with the scintillant, as described above. The plates were sealed and left at rt for 1 h before counting on a Hewlett Packard TopCount. • Assay Method 2

Rat FAAH = target: T2, Rat FAAH (Rattus norvegicus, UniProt P97612); experiment: Assay Method 2: FAAH assay, 3H-anandamide hydrolysis in cell homogenate; format: biochemical; settings: average of results obtained, > value = solubility limit or highest concentration tested
T2 construct: expressed in transfected cells
T2 sequence (P97612 1-579): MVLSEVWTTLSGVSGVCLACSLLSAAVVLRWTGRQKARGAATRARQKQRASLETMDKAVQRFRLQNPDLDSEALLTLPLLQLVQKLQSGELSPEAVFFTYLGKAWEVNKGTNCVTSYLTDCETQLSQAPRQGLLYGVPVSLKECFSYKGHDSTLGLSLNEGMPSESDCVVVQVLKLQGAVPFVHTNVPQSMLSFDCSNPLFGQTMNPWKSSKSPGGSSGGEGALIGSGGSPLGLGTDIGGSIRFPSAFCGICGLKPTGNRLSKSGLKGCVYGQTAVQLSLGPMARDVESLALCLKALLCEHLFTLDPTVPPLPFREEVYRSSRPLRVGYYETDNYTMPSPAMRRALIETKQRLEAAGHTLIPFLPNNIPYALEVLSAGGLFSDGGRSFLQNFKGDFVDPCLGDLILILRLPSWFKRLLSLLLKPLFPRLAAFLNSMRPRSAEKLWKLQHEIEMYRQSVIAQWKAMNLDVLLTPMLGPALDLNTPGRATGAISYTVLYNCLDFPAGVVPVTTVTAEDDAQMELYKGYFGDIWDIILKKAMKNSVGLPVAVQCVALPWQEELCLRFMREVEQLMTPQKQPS
Procedure: A. Transfection of Cells with Rat FAAH
The assay mixture consisted of 50 μL of the cell homogenate, 10 μL of the test compound, and 40 μL of anandamide [1-^3H-ethanolamine] (^3H-AEA, Perkin-Elmer, 10.3 Ci/mmol), which was added last, for a final tracer concentration of 80 nM. The reaction mixture was incubated at rt for 1 h. During the incubation, 96-well Multiscreen filter plates (catalog number MAFCNOB50; Millipore, Bedford, Mass., USA) were loaded with 25 μL of activated charcoal (Multiscreen column loader, catalog number MACL09625, Millipore) and washed once with 100 μL of MeOH. […] After the 1 h incubation, 60 μL of the reaction mixture were transferred to the charcoal plates, which were then assembled on top of the DYNEX plates using Centrifuge Alignment Frames (catalog number MACF09604, Millipore). The unbound labeled ethanolamine was centrifuged through to the bottom plate (5 min at 2000 rpm), which was preloaded with the scintillant, as described above. The plates were sealed and left at rt for 1 h before counting on a Hewlett Packard TopCount.

Row | SMILES | IC50 (FAAH) | IC50 (Rat FAAH)
1 | O=C(Nc1noc2cnccc12)N1CCN(Cc2ccc3c(c2)OC(F)(F)O3)CC1 [Example 39, 4-(2,2-Difluoro-benzo[1,3]dioxol-5-ylmethyl)-piperazine-1-carboxylic acid isoxazolo[5,4-c]pyridin-3-ylamide] | 6 nM | 11 nM
2 | O=C(Nc1noc2cccnc12)N1CCN(Cc2ccc3c(c2)OC(F)(F)O3)CC1 [Example 42, 4-(2,2-Difluoro-benzo[1,3]dioxol-5-ylmethyl)-piperazine-1-carboxylic acid isoxazolo[4,5-b]pyridin-3-ylamide] | 2000 nM | 220 nM
3 | O=C(Nc1noc2cccnc12)N1CCN(Cc2ccc(Cl)c(Cl)c2)CC1 [Example 43, 4-(3,4-Dichloro-benzyl)-piperazine-1-carboxylic acid isoxazolo[4,5-b]pyridin-3-ylamide] | 250 nM | 112 nM
4 | O=C(Nc1cnc2[nH]ccc2c1)N1CCN(Cc2ccc3c(c2)OC(F)(F)O3)CC1 [Example 44, 4-(2,2-Difluoro-benzo[1,3]dioxol-5-ylmethyl)-piperazine-1-carboxylic acid (1H-pyrrolo[2,3-b]pyridin-5-yl)-amide] | 16 nM | 9 nM
5 | O=C(Nc1cnc2cc[nH]c2c1)N1CCN(Cc2ccc3c(c2)OC(F)(F)O3)CC1 [Example 45, 4-(2,2-Difluoro-benzo[1,3]dioxol-5-ylmethyl)-piperazine-1-carboxylic acid (1H-pyrrolo[3,2-b]pyridin-6-yl)-amide] | 230 nM | 230 nM
6 | O=C(Nc1ccc2ncoc2c1)N1CCN(Cc2cccc(Oc3ccc(Cl)cc3)c2)CC1 [Example 46, 4-[3-(4-Chloro-phenoxy)-benzyl]-piperazine-1-carboxylic acid benzooxazol-6-ylamide] | 27 nM | 7000 nM
7 | O=C(Nc1ccc2ncoc2c1)N1CCN(Cc2ccc3c(c2)OC(F)(F)O3)CC1 [Example 47, 4-(2,2-Difluoro-benzo[1,3]dioxol-5-ylmethyl)-piperazine-1-carboxylic acid benzooxazol-6-ylamide] | 2000 nM | 3000 nM
8 | O=C(Nc1ccc2nccn2c1)N1CCN(Cc2ccc3c(c2)OC(F)(F)O3)CC1 [Example 51, 4-(2,2-Difluoro-benzo[1,3]dioxol-5-ylmethyl)-piperazine-1-carboxylic acid imidazo[1,2-a]pyridin-6-ylamide] | > 10000 nM | > 10000 nM
9 | O=C(Nc1cccn2ccnc12)N1CCN(Cc2ccc(OC(F)(F)F)c(Cl)c2)CC1 [Example 53, 4-(3-Chloro-4-trifluoromethoxy-benzyl)-piperazine-1-carboxylic acid imidazo[1,2-a]pyridin-8-ylamide] | 1300 nM | 120 nM
10 | O=C(Nc1cccn2ccnc12)N1CCN(Cc2ccc3c(c2)OC(F)(F)O3)CC1 [Example 54, 4-(2,2-Difluoro-benzo[1,3]dioxol-5-ylmethyl)-piperazine-1-carboxylic acid imidazo[1,2-a]pyridin-8-ylamide] | 6000 nM | 350 nM
11 | O=C(Nc1cn2ccccc2n1)N1CCN(Cc2cccc(Oc3ccc(Cl)cc3)c2)CC1 [Example 55, 4-[3-(4-Chloro-phenoxy)-benzyl]-piperazine-1-carboxylic acid imidazo[1,2-a]pyridin-2-ylamide] | > 10000 nM | > 10000 nM
12 | O=C(Nc1cn2ccccc2n1)N1CCN(Cc2ccc(OC(F)(F)F)c(Cl)c2)CC1 [Example 56, 4-(3-Chloro-4-trifluoromethoxy-benzyl)-piperazine-1-carboxylic acid imidazo[1,2-a]pyridin-2-ylamide] | > 10000 nM | > 10000 nM
13 | O=C(NC1=NS(=O)(=O)c2ccccc21)N1CCN(Cc2cccc(Oc3ccc(Cl)cc3)c2)CC1 [Example 59, 4-[3-(4-Chloro-phenoxy)-benzyl]-piperazine-1-carboxylic acid (1,1-dioxo-1H-λ^6-benzo[d]isothiazol-3-yl)-amide] | 2000 nM | 2000 nM
